Reference: patent US20230390243A1, “Compositions and Uses Thereof” (Purposeful IKE, priority 2020, published 2023)
Where “and” joins values, the source holds several entries; their conditions need not be identical. Equal entries are not always repeated. Where two headings read alike, the source gives them in different places.

Legend:
Fmr1 KO mice [1] = experiment: Open field test (hyperactivity); assay type: in vivo; parameters: unit not given here; conditions: for Mean 2 (group mean), Open Field: KO group mean, n 10
Experimental: (§1) Fmr1 KO mice backcrossed to the FVB strain and WT littermates were used during experiments. TransnetXY Automated Genotyping (www.transnetyx.com/). TRANSNETYX, INC., 8110 Cordova Rd. Suite 119, Cordova, TN 38016, USA was used for genotyping. The animals were pretreated for 14 days. The active ingredients of Sumatriptan and Ergoloid were in a water carrier, whereas oxitriptan was in a methanol carrier.
(§2) The mice were housed in plastic cages (35×30×12 cm), 5 in each. The room temperature (21±2° C.),relative humidity (55±5%), a 12-h light-dark cycle (lights on 7 a.m.-7 p.m.) and air exchange (16 times per h) were automatically controlled. The animals had free access to commercial food pellets and water. Testing was conducted during the light phase. Ten mice per treatment group were used for the AGS experiments. Experiments were conducted in line with the requirements of the UK Animals (Scientific Procedures) Act, 1986.
(§3) All experiments were conducted with the experimenter blind to genotype and drug treatment. Separate investigators prepared and coded dosing solutions, allocated the mice to the study treatment groups, dosed the animals, and collected the Audiogenic Seizure data.
(§4) Behavior testing was conducted at 2 weeks. The behavioral tests were as follows: 1. Hyperactivity: Open field; 2. Stereotypy: Self-grooming; 3. Sociability: Three chamber partition test; 4. Memory and Learning: Novel Object Recognition; 5. Anxiety: hyponeophagia; and 6. Test of daily living: marble burying
For hyperactivity, the open field test (OFT) is a common measure of exploratory behavior and general activity in both mice and rats, where both the quality and quantity of the activity can be measured. Principally, the open field (OF) is an enclosure, generally square, rectangular, or circular in shape with surrounding walls that prevent escape. The OFT is also commonly used as a mechanism to assess the sedative, toxic, or stimulant effects of compounds (Gould 2009).
(§5) The treatment of the mice with OX (Oxitriptan), SU (Sumatriptan), ER (Ergoloid mesylates) were according to the matrix shown below in Table 1.

Fmr1 KO mice [2] = experiment: Stereotypy: self-grooming; assay type: in vivo; parameters: unit not given here; conditions: for Mean Diff. (KO-V vs. group), Stereotypy: Dunnett's test against KO-V; for Mean Diff. (KO-V vs. group), Stereotypy / Data table Stereotypy (individual animals): Sumatriptan 20, Oxitriptan 40, Ergoloid 4 mg/kg, Ergoloid 2 + Oxitriptan 40 mg/kg; for Data table Stereotypy (individual animals): KO mice, one value per animal
Experimental: as §1, §2, §3, §4
For stereotypy, self-grooming was assessed. Self-grooming in animals is an innate behaviour that is involved in hygiene maintenance and other physiologically important processes, including thermoregulation, social communication and de-arousal. It is one of the most frequently observed behaviours in awake rodents and has a patterned, sequential organization with characteristic cephalocaudal progression (Kalueff 2016).
as §5

Fmr1 KO mice [3] = experiment: Sociability: three chamber partition test; assay type: in vivo; parameters: unit not given here; conditions: for Mean 2 (F_ group mean), Sociability / Mean Diff. (F_KO-V vs. F_ group), Sociability: F_ values; for Mean 2 (F_ group mean), Sociability / Mean 2 (N_ group mean), Sociability / Mean 2 (group mean), Sociability: KO group mean; for Mean 2 (F_ group mean), Sociability / Mean 2 (N_ group mean), Sociability: table against F_KO-V; for Mean 2 (F_ group mean), Sociability: doses as E34; for Mean Diff. (F_KO-V vs. F_ group), Sociability: Ergoloid 2 + Oxitriptan 40 mg/kg; for Mean 2 (N_ group mean), Sociability: doses as E37; for Mean 2 (group mean), Sociability: table against N_WT-V (mean 99.10), doses as E13; for Mean Diff. (N_WT-V vs. group), Sociability: Dunnett's test against N_WT-V, Ergoloid 2 + Sumatriptan 10, Ergoloid 2 + Oxitriptan 40 mg/kg
Experimental: as §1, §2, §3, §4
For sociability a three chamber partition test was utilized. The three-chamber paradigm test known as Crawley's sociability and preference for social novelty protocol has previously been successfully employed to study social affiliation and social memory in several inbred and mutant mouse lines. The main principle of the test was based on the free choice by a subject mouse to spend time in any of three box's compartments during two experimental sessions, including indirect contact with one or two mice with which it was unfamiliar (Kaidanovich-Beilin 2011).
as §5

Fmr1 KO mice [4] = experiment: Memory and learning: Novel Object Recognition (NOR); assay type: in vivo; parameters: unit not given here; conditions: for Mean 2 (group mean), NOR: table against N_WT-V (mean 13.90), doses as E10; for Mean Diff. (N_WT-V vs. group), NOR: Dunnett's test against N_WT-V, Ergoloid 2 + Sumatriptan 10, Ergoloid 2 + Oxitriptan 40 mg/kg
Experimental: as §1, §2, §3, §4
For memory and learning, a novel object recognition (NOR) task was used to evaluate the rodents' ability to recognize a novel object in the environment. […] The task procedure consists of three phases: habituation, familiarization, and test phase (Antunes 2012).
as §5

Fmr1 KO mice [5] = experiment: Anxiety: hyponeophagia test; assay type: in vivo; parameters: unit not given here; conditions: for Mean Diff. (KO-V vs. group), Hyponeophagia: Dunnett's test against KO-V, Ergoloid 2 + Oxitriptan 40 mg/kg; for Mean 2 (group mean), Hyponeophagia: KO group mean, n 10
Experimental: as §1, §2, §3, §4
For anxiety a hyponeophagia test was conducted. Mice and rats cannot vomit, due to the tightness of the cardiac sphincter of the stomach, so to overcome the problem of potential food toxicity they have evolved a strategy of first ingesting only very small amounts of novel substances. The amounts ingested then gradually increase until the animal has determined whether the substance is safe and nutritious. So the old rat-catchers would first put a palatable substance such as oatmeal, which was to be the vehicle for the toxin, in the infested area (Deacon 2011).
as §5

Fmr1 KO mice [6] = experiment: Test of daily living (marble burying / nesting); assay type: in vivo; parameters: scale not given here; conditions: for Mean Diff. (KO-V vs. group), Test of daily living: Dunnett's test against KO-V, Ergoloid 2 + Oxitriptan 40 mg/kg; for Mean Diff. (KO-V vs. group), Test of daily living / Mean Diff. (WT-V vs. group), Test of daily living: Sumatriptan 20, Oxitriptan 40, Ergoloid 4 mg/kg; for Mean Diff. (WT-V vs. group), Test of daily living: Dunnett's test against WT-V, Column F Ergoloid 2 + Sumatriptan 10, Column G Ergoloid 2 + Oxitriptan 40 mg/kg; for Mean 2 (group mean), Test of daily living: KO group mean, n 10
Experimental: as §1, §2, §3, §4
For test of daily living, nesting was assessed as nest building is an innate behavior in rodents, even when raised in laboratory settings. Synthetic and/or natural materials (such as twine, tissue, cotton, paper, and hay) are provided as a gauge of their overall well-being and as an ancillary assessment to predict the possible decline in cognition. Typically, changes in nesting behaviors, such as failure to create a nest, indicate a change in health or welfare. In addition, nesting behavior is sensitive to many environmental and physiological challenges, as well as many genetic mutations underlying pathological disease states (Gaskill 2013).
as §5

FMR1 mice = experiment: Behavioral experiments, FXS phenotypes overall; assay type: in vivo; conditions: summary statement
Experimental: as §1, §4, §5

[7] = cited from earlier work
[8] = tested on: patients with autism or Asperger's disorder; conditions: versus placebo; cited from earlier work
[9] = table against KO-V (mean 8263), doses as E16
[10] = table against WT-V (mean 4207), doses as E1
[11] = Dunnett's test against F_KO-V, Sumatriptan 20, Oxitriptan 40, Ergoloid 4 mg/kg
[12] = Fmr1 KO mice, Sumatriptan 20 mg/kg, F column, individual animals
[13] = Fmr1 KO mice, Sumatriptan 20 mg/kg, individual animals
[14] = N_ values, Dunnett's test against F_KO-V, Sumatriptan 20, Oxitriptan 40, Ergoloid 4 mg/kg, Column N Ergoloid 2 + Oxitriptan 40 mg/kg
[15] = N_ values, Sumatriptan 20, Oxitriptan 40, Ergoloid 4 mg/kg
[16] = Sumatriptan 20, Oxitriptan 40, Ergoloid 4 mg/kg
[17] = table against KO-V (mean 237.3), doses as E22
[18] = table against WT-V (mean 145.5), doses as E4
[19] = table against KO-V (mean 1.200), doses as E25
[20] = table against WT-V (mean 4.800), doses as E7
[21] = Fmr1 KO mice, Oxitriptan 40 mg/kg, F column, individual animals
[22] = Fmr1 KO mice, Oxitriptan 40 mg/kg, individual animals

Row | Compound | Mean 2 (group mean), Open Field (Fmr1 KO mice [1]; [9]) | Mean 2 (group mean), Open Field (Fmr1 KO mice [1]; [10]) | Mean Diff. (KO-V vs. group), Stereotypy (Fmr1 KO mice [2]) | Data table Stereotypy (individual animals) (Fmr1 KO mice [2]) | Mean 2 (F_ group mean), Sociability (Fmr1 KO mice [3]) | Mean Diff. (F_KO-V vs. F_ group), Sociability (Fmr1 KO mice [3]; [11]) | Mean 2 (N_ group mean), Sociability (Fmr1 KO mice [3]; N_ values) | Mean 2 (group mean), Sociability (Fmr1 KO mice [3]; N_ values) | Mean Diff. (N_WT-V vs. group), Sociability (Fmr1 KO mice [3]; [15]) | Mean 2 (group mean), NOR (Fmr1 KO mice [4]; N_ values, KO group mean) | Mean Diff. (N_WT-V vs. group), NOR (Fmr1 KO mice [4]; [15]) | Mean Diff. (KO-V vs. group), Hyponeophagia (Fmr1 KO mice [5]; [16]) | Mean 2 (group mean), Hyponeophagia (Fmr1 KO mice [5]; [17]) | Mean 2 (group mean), Hyponeophagia (Fmr1 KO mice [5]; [18]) | Mean Diff. (KO-V vs. group), Test of daily living (Fmr1 KO mice [6]) | Mean Diff. (WT-V vs. group), Test of daily living (Fmr1 KO mice [6]) | Mean 2 (group mean), Test of daily living (Fmr1 KO mice [6]; [19]) | Mean 2 (group mean), Test of daily living (Fmr1 KO mice [6]; [20]) | further results
1 | CNS(=O)(=O)Cc1ccc2[nH]cc(CCN(C)C)c2c1 [Sumatriptan, 1-[3-[2-(dimethylamino)ethyl]-1H-indol-5-yl]-N-methylmethanesulfonamide] | 7416 | 7416 | 14.60 | 29 and 35 and 31 (2×) and 30 (3×) and 32 and 28 and 33 | 62.20 | 19.40 | 98.20 | 98.20 | 0.9000 | 7.300 | 6.600 | 82.60 | 154.7 | 154.7 | −3.500 | 0.1000 | 4.700 | 4.700 | Mean Diff. (WT-V vs. group), Open Field (Fmr1 KO mice [1]; Dunnett's test against WT-V, Sumatriptan 20 mg/kg, 5-HTP 80 mg/kg, EM 4 mg/kg, Column F Ergoloid 2 + Sumatriptan 10 mg/kg, Ergoloid 2 + Oxitriptan 40 mg/kg): −3209; Sociability, F_KO-Sumatriptan (Fmr1 KO mice [3]; [12]): 61 (2×) and 64 and 65 (2×) and 60 (3×) and 63 (2×); Sociability, N_KO-Sumatriptan (Fmr1 KO mice [3]; [13]): 99 and 97 (2×) and 103 and 98 and 90 and 102 and 100 and 95 and 101; Mean Diff. (F_KO-V vs. N_ group), Sociability (Fmr1 KO mice [3]; [14]): −18.80; Mean Diff. (F_KO-V vs. F_ group), NOR (Fmr1 KO mice [4]; F_ values, Dunnett's test against F_KO-V, Sumatriptan 20, Oxitriptan 40, Ergoloid 4 mg/kg, Ergoloid 2 + Oxitriptan 40 mg/kg): −0.2000; Novel Object Recognition, F_KO-Sumatriptan (Fmr1 KO mice [4]; [12]): 9 (2×) and 5 (2×) and 8 (2×) and 7 (2×) and 4 and 6; Novel Object Recognition, N_KO-Sumatriptan (Fmr1 KO mice [4]; [13]): 6 (2×) and 8 (2×) and 9 (3×) and 5 and 7; Mean Diff. (F_KO-V vs. N_ group), NOR (Fmr1 KO mice [4]; [14]): −0.7000; Hyponeophagia, KO-Sumatriptan (Fmr1 KO mice [5]; [13]): 154 (2×) and 157 (2×) and 148 and 153 and 155 and 158 and 159 and 152; Tests of daily living, KO-Sumatriptan (Fmr1 KO mice [6]; [13]): 5 (7×) and 4 (3×); effect on FXS phenotypes (FMR1 mice): ameliorates the FXS phenotypes in FMR1 mice; half life ([7]; administered orally): 1.7 h; half life ([7]; administered subcutaneous): 1.9 h; GH response to sumatriptan [8]: significantly greater than to placebo
2 | N[C@@H](Cc1c[nH]c2ccc(O)cc12)C(=O)O [Oxitriptan] | 4720 | 4720 | 10.10 | 34 and 37 (2×) and 40 and 36 and 38 (2×) and 33 and 31 and 29 | 52.10 | 29.50 | 98.80 | 96.80 | 0.3000 | 10.82 | 3.082 | 91.10 | 146.2 | 146.2 | −3.700 | −0.1000 | 4.800 | 4.900 | Mean Diff. (KO-V vs. group), Open Field (Fmr1 KO mice [1]; Dunnett's test against KO-V, Sumatriptan 20, Oxitriptan 80, Ergoloid 4 mg/kg, Ergoloid 2 + Oxitriptan 40 mg/kg): 3543; Mean 2 (group mean), Stereotypy (Fmr1 KO mice [2]; KO group mean, n 10, table against KO-V (mean 45.40), doses as E19): 35.30; Sociability, F_KO-Oxitriptan (Fmr1 KO mice [3]; [21]): 54 and 52 (2×) and 50 (2×) and 53 (2×) and 51 and 55; Sociability, N_KO-Oxitriptan (Fmr1 KO mice [3]; [22]): 104 and 98 (2×) and 97 (2×) and 100 (2×) and 99 (2×) and 96; Novel Object Recognition, F_KO-Oxitriptan (Fmr1 KO mice [4]; [21]): 6 (4×) and 5 (3×) and 9 (2×) and 8 (2×); Novel Object Recognition, N_KO-Oxitriptan (Fmr1 KO mice [4]; [22]): 10 (4×) and 12 and 14 and 8 (2×) and 15 and 13 and 9; Mean 2 (N_ group mean), NOR (Fmr1 KO mice [4]; N_ values, KO group mean, table against F_KO-V, doses as E31): 10.82; Mean Diff. (WT-V vs. group), Hyponeophagia (Fmr1 KO mice [5]; Dunnett's test against WT-V, Sumatriptan 20, Oxitriptan 40, Ergoloid 4 mg/kg, Column F Ergoloid 2 + Sumatriptan 10, Column G Ergoloid 2 + Oxitriptan 40 mg/kg): −0.7000; Hyponeophagia, KO-Oxitriptan (Fmr1 KO mice [5]; [22]): 151 and 145 and 150 and 140 (2×) and 147 and 143 and 152 and 148 and 146; Tests of daily living, KO-Oxitriptan (Fmr1 KO mice [6]; [22]): 5 (9×) and 4
